{
  "source": "patent US8420852B2",
  "about": "“Phospholipase A2 inhibitors and their use in treating neurological injury and disease” (The Regents of the University of California, priority 2007, dated 2013)",
  "key": {"[1]": {"test_system": "C57BL/6 mice with EAE", "conditions": "C57BL/6 mouse strain, previously shown; cited from earlier work"}, "[2]": {"test_system": "SJL/J mice induced with EAE", "assay": "EAE model of multiple sclerosis, clinical score", "assay_type": "in vivo, mouse"}},
  "note": "“Also recorded” adds a separate entry of the source.",
  "data": [
    {"smiles": "CCCCC/C=C\\C/C=C\\C/C=C\\C/C=C\\CCCC(=O)C(F)(F)F", "note": "[AACOCF3, arachidonyltrifluoromethyketone]", "values": [
      {"measurement": "onset and progression of EAE", "setting": "[1]", "value": "markedly reduce the onset and progression of the disease"}
    ]},
    {"smiles": "CCCCCCCCCCCCCCC(=O)C(=O)NCCCC(=O)O", "note": "[AX006, 4-(2-oxohexadecanoyl)amino butyric acid]", "values": [
      {"measurement": "clinical disability score at day 40", "setting": "[2]; treatment before onset from day 5/6, stopped day 27, vehicle 2.4", "value": 1.6},
      {"measurement": "clinical score at day 18", "setting": "[2]; treatment before onset from day 5/6, vehicle grade 2, 5-point scale", "value": 0.5},
      {"measurement": "clinical course of EAE vs vehicle control", "setting": "[2]; treatment before onset of symptoms, from day 5/6 after immunization, daily for 3 weeks", "value": "significant during the first paralytic episode; also recorded: significant reduction of disease severity"}
    ]}
  ]
}
